According to US20070270458A1 (priority 2003, published 2007):

Target: α7 nAChR subtype (Rattus norvegicus, UniProt Q05941)
Type: binding

Chain of α7 nAChR subtype (Q05941 23-502 limits assumed): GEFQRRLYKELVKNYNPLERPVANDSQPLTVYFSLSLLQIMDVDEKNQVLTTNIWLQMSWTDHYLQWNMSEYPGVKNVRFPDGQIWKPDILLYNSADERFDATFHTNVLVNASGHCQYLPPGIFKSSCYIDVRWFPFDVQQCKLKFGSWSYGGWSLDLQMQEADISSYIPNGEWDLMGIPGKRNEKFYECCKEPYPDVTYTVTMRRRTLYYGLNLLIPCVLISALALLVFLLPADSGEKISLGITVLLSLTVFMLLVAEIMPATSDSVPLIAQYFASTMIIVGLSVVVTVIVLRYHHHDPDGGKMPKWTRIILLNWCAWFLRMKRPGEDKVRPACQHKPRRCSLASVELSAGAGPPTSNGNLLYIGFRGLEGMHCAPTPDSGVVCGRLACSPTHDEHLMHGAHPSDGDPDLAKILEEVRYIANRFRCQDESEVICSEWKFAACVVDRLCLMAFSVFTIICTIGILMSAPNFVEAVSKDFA

## ^125I-α—Bungarotoxin [^125I-α-BTX]
  Kd: 1.67 nM
